US20070232614A1, “Therapeutic Agent for Nonviral Hepatitis” (Mitsubishi Pharma Corporation, priority 2004, published 2007)

How the values were obtained:
[1] = test system: concanavalin A-induced hepatitis; assay: Action on concanavalin A-induced hepatitis (plasma ALT 8 hr after Con A); assay type: in vivo, female BALB/c mouse; settings: therapeutic administration 3 hr after Con A injection (20 mg/kg i.v.), mouse
Description: 20 mg/kg of concanavalin A (Con A, type V, manufactured by Sigma) was intravenously administered to female BALB/c mouse (purchased from Charles River Laboratories JAPA, INC.). […] The administration time in the prophylactic administration test of pentoxifylline (manufactured by Sigma) or anti-mouse TNF-α antibody (manufactured by Genzyme-Techne) was set according to the method of Shirin et al. [Journal of Hepatology, 29, 60-67 (1998)] or Gantner et al. [Hepatology, 21, 190-198 (1995)]. The administration time in the therapeutic administration test was always set to 3 hr after Con A injection. To be specific, pentoxifylline (100 mg/kg) was intraperitoneally administered 2 hr before or 3 hr after Con A injection, anti-mouse TNF-α antibody (250 μg, was intravenously administrated 15 minutes before or 3 hr after Con A injection, and plasma SALT was similarly measured 8 hr later.
In addition, the test compound (10 mg/kg) was intravenously administrated 15 minutes before or 3 hr after Con A injection, and plasma ALT concentration was similarly measured.
The results are shown in mean±standard error.

[2] = test system: severe alcoholic hepatitis; settings: non-patent references 1 and 2; cited from earlier work
[3] = test system: concanavalin A-induced hepatitis; settings: prophylactic administration before injection of concanavalin A; mouse; non-patent references 3 and 4; cited from earlier work

| Compound | therapeutic effect in the hepatitis model (progress of concanavalin A-induced hepatitis, plasma ALT) [1] | effectiveness for severe alcoholic hepatitis [2] | inhibition of the progress of concanavalin A-induced hepatitis [3] |
| --- | --- | --- | --- |
| CC(=O)CCCCn1c(=O)c2c(ncn2C)n(C)c1=O [pentoxifylline] | do not inhibit progress | effective | inhibit the progress |
| CC(=O)NC1(c2ccc(CN3CCN(c4ncccn4)CC3)cc2)CC1.Cl [test compound, N-(1-(4-((4-(pyrimidin-2-yl)piperazin-1-yl)methyl)phenyl)cyclopropyl)acetamide hydrochloride] | shows a therapeutic effect |  |  |
